Measurements reported in US8258309B2, “Azapeptide derivatives” (priority 2007, dated 2012).
Where two headings read alike, the source gives them in different places.

Assays:
[1] = Microsomal assay: stability in human liver microsomes; format: in vitro ADME; conditions: for half-life at 1 μM: liver microsomes
Protocol: Microsomal Assay. Human liver microsomes (20 mg/mL, pool of 50 individuals) were obtained from Xenotech LLC (Lenexa, Kans.). The incubation mixtures are prepared as follows. Stock solutions (10 mM) solutions of test Compounds 103, 106, 122 and of atazanavir were prepared in DMSO. The 10 mM stock solutions were diluted to 1 mM in acetonitrile (ACN). […] The microsome-test compound mixtures were added to wells of a 2 mL 96-well deep well polypropylene plate in triplicate. The plate was warmed to 37° C. before initiating the reactions by addition of prewarmed NADPH in 0.1 M potassium phosphate buffer, pH 7.4, containing 3 mM MgCl2. The final reaction mixture composition contained: • Liver Microsomes 0.5 mg/mL • NADPH 2 mM • Potassium Phosphate, pH 7.4 100 mM • Magnesium Chloride 3 mM • Test Compound 1.0 μM. The reaction mixtures were incubated at 37° C. and 50 μL aliquots were removed at 0, 3, 7, 12, 20, and 30 minutes and added to shallow-well 96-well plates which contained 50 μL of ice-cold ACN with internal standard to stop the reactions. The plates were stored at −20° C. for 30 minutes, after which 100 μL of water was added to the wells of the plate before centrifugation to pellet precipitated proteins. Supernatants were transferred to another 96-well plate and analyzed for amounts of parent remaining by LC-MS/MS using an Applied Biosystems API 4000 mass spectrometer. […] Data analysis was performed using Microsoft Excel Software. […] The results are shown in FIGS. 2 and 3 and in Table 3, below: […]

[2] = Rat pharmacokinetics, intravenous and oral co-dosing of Compound 122 and atazanavir; format: in vivo; conditions: male, Sprague-Dawley, plasma, rats, 1 mg/kg of each
Protocol: Rat Pharmacokinetics. […] Then the combo dose was prepared by mixing both by 1:1 to yield a final concentrations at 1 mg/mL for each compound (pH=5-6) for intravenous and oral administration. Male Sprague-Dawley rats (body weight: 170 g to 235 g) were used in this study. […] Blood samples (300 μL) were collected via the retro-orbital vein at pre-dose and 0.083, 0.25, 0.5, 1, 2, 4, 6, 8, 10, 12 and 24 hours post-dose. Blood samples were placed into heparinized eppendorf tubes (evaporated) and then centrifuged at 8000 rpm for 6 minutes. 100 μL aliquots of plasma were transferred to clean Eppendorf tubes and stored with the dose formulation at -20° C. until bioanalysis. For bioanalysis, plasma was thawed and added to it was 20 μL methanol and 500 μL of a 50 ng/ml internal standard solution (quetiapine in methanol). The sample was vortexed, centrifuged at 15,000 rpm for 5 minutes and the supernatant transferred to glass autosampler vials. Analyses of plasma samples were performed using a high performance liquid chromatography/mass spectrometry (HPLC/MS/MS) method. The LC system comprised an Agilent (Agilent Technologies Inc, USA) liquid chromatograph equipped with an isocratic pump (1100 series), an autosampler (1100 series) and a […]). Mass spectrometric analysis was performed using an API3000 (triple-quadrupole) instrument from AB Inc (Canada) with an ESI interface. The data acquisition and control system were created using Analyst 1.4 software from ABI Inc. Following intravenous co-administration of Compound 122 and atazanavir, atazanavir disappeared more rapidly from the blood.

[3] = test system: HIV-1RF; experiment: HIV anti-viral activity in CEM-SS cells infected with HIV-1 (XTT); format: cell-based
Protocol: The HIV antiviral activity of compound of the present invention was tested in CEM-SS cells infected with HIV-1. CEM-SS cells were passaged in T-75 flasks in RPMI 1640 medium supplemented with 10% heat inactivated fetal bovine serum, 2 mmol/L L-glutamine, 100 U/mL penicillin and 100 flg/mL streptomycin prior to use in the antiviral assay. On the day preceding the assay, the cells were split 1:2 to assure they were in an exponential growth phase at the time of infection. Total cell and viability quantification was performed using a hemocytometer and Trypan Blue dye exclusion. Cell viability was greater than 95% for the cells to be utilized in the assay. The cells were resuspended at 5×10^4 cells per mL in tissue culture medium and added to the drug-containing microtiter plates in a volume of 50 μL.
The virus used for the assay was the lymphocyte-tropic virus strain HIV-IRF. The virus was obtained from the NIH AIDS Research and Reference Reagent Program and stock virus pools were produced in CEM-SS cells. A pre-titered aliquot of virus was removed from the freezer (−80° C.) and allowed to thaw slowly to room temperature in a biological safety cabinet. Virus was resuspended and diluted into tissue culture medium such that the amount of virus added to each well in a volume of 50 μL was the amount determined to yield 85 to 95% cell killing at 6 days post-infection.
Each plate contains cell control wells (cells only), virus control wells (cells plus virus), compound toxicity wells (cells plus compound only), compound colorimetric control wells (compound only) as well as experimental wells (compound plus cells plus virus). Samples were tested in triplicate with eleven half-log dilutions per compound starting at 0.1 μM of compound. Compounds 104, 120 and 122 were tested, as was atazanavir and AZT. […]
Following incubation at 37° C. in a 5% CO2 incubator, the test plates were stained with the tetrazolium dye XTT (2,3-bis(2-methoxy-4-nitro-5sulfophenyl)-5-[(phenylamino)carbonyl]-2H-tetrazolium hydroxide). XTT-tetrazolium was metabolized by the mitochondrial enzymes of metabolically active cells to a soluble formazan product, allowing rapid quantitative analysis of the inhibition of HIV induced cell killing by anti-HIV test substances. XTT solution was prepared daily as a stock of 1 mg/mL in RPMI 1640. Phenazine methosulfate (PMS) solution was prepared at 0.15 mg/mL in PBS and stored in the dark at −20° C. XTT/PMS stock was prepared immediately before use by adding 40 μL of PMS per mL of XTT solution. Fifty microliters of XTT/PMS was added to each well of the plate and the plate was reincubated for 4 hours at 37° C. Plates were sealed with adhesive plate sealers and shaken gently or inverted several times to mix the soluble formazan product and the plate was read spectrophotometrically at 450/650 nm with a Molecular Devices Vmax plate reader.
Raw data was collected from the Softmax Pro 4.6 software and imported into a Microsoft Excel 2003 spreadsheet for analysis by linear curve fit calculations.

[4] = human, pH 7.4, human liver microsomes 0.5 mg/mL, 1.0 μM test compound, first run (Table 2), read-out: T1/2 ± SD
[5] = human, pH 7.4, human liver microsomes, repeated assay (Table 3), read-out: t1/2 (min) Avg ± SD (n = 3)
[6] = Human immunodeficiency virus 1, CEM-SS, +0.5 mg/mL AAGP
[7] = Human immunodeficiency virus 1, CEM-SS, +10 mg/mL HAS
[8] = Human immunodeficiency virus 1, CEM-SS, +AAGP + HSA
[9] = Human immunodeficiency virus 1, CEM-SS, No Serum Protein Added (cell culture medium)

Row | Compound | half-life as compared to atazanavir ([1]; human liver microsomes, first run) | increase in half-life as compared to atazanavir ([1]; human, 1 μM, pH 7.4) [%] | half-life at 1 μM [1, 4] [min] | half-life at 1 μM [1, 5] [min] | AUC ([2]; intravenous co-dosing) [ng·h/mL] | half-life ([2]; intravenous co-dosing) [min] | AUC ([2]; oral co-dosing) [ng·h/mL] | Cmax ([2]; oral co-dosing) [ng/mL] | half-life ([2]; oral co-dosing) [min] | fold less potent in the presence of HSA than in cell culture medium alone ([3]; 10 mg/mL HSA versus cell culture medium) | EC50 ([3]; +10 mg/mL HAS) [nM] | EC50 [3, 6] [nM] | EC50 [3, 7] [nM] | EC50 [3, 8] [nM] | EC50 [3, 9] [nM] | EC50 ([3]; No Serum Protein Added (cell culture medium)) [nM]
1 | [2H]C([2H])([2H])OC(=O)N[C@H](C(=O)N[C@@H](Cc1ccccc1)[C@@H](O)CN(Cc1ccc(-c2ccccn2)cc1)NC(=O)[C@@H](NC(=O)OC([2H])([2H])[2H])C(C([2H])([2H])[2H])(C([2H])([2H])[2H])C([2H])([2H])[2H])C(C([2H])([2H])[2H])(C([2H])([2H])[2H])C([2H])([2H])[2H] [Compound 122, 1,14-Di(methyl-d3)(3S,8S,9S,12S)-3,12-bis[(1,1-dimethylethyl)-d9]-8-hydroxy-4,11-dioxo-9-(phenylmethyl)-6-[[4-(2-pyridinyl)phenyl]methyl]-2,5,6,10,13-pentaazatetradecanedioate] | increased half-life | ~67 | 35.4 ± 1.68 | 28.3 ± 0.3 | 503 ± 25.1 | 15 ± 1.2 | 156 ± 70.6 | 183 ± 113 | 27.6 ± 9.6 | two- to greater than three-fold less potent | 0.8 | 2 | 0.9 | 6 | < 0.4 | 0.4
2 | COC(=O)N[C@H](C(=O)N[C@@H](Cc1ccccc1)[C@@H](O)CN(Cc1ccc(-c2ccccn2)cc1)NC(=O)[C@@H](NC(=O)OC)C(C)(C)C)C(C)(C)C [Atazanavir, atazanavir, reference compound] | – | – | 18.6 ± 2.99 | 18.8 ± 0.6 | 475 ± 15.9 | 13.8 ± 0.6 | 86 ± 51.2 | 109 ± 67.2 | 19.2 ± 3.6 | – | – | 4 | 4 | 8 | 1 | –
